Experimental data as given in patent publication US5886178A, “3-aroylbenzylpyridazinone derivatives” (Syntex (U.S.A.) Inc., priority 1997, dated 1999).

Legend:
[1] = system: prostaglandin E2 synthesis; test: Inhibition of eicosanoid (PGE2) synthesis in vivo, carrageenan air-pouch model in rats; parameters: species or system rat; conditions: oral, male rats
Method: In this assay, an air-pouch is created in the rat and the PGE2 levels in the air-pouch exudate are measured by enzyme immunoassay. Briefly, male rats were anesthetized using a 60:40 CO2 :O2 mixture and subsequently injected subcutaneously with 20 ml of sterilized air, under aseptic conditions, in the proximal area of the dorsum. This injection of sterile air causes the creation of a subcutaneous "air pouch". The next day, a further 10 ml of sterile air was injected into the previously formed pouch using the same technique. […] Control rats received vehicle alone. After 30 minutes, 5 ml of a 0.5% solution of carrageenan (Sigma, Lambda Type IV) was injected into the air pouch. The rats were euthanized 3 hr after the compound administration. […] The total exudate volume was recorded, and the samples were analyzed for PGE2 and 6-keto PGF1 by ELISA (Titerzyme®, PerSeptive Diagnostics) and TxB2 by radioimmuno assay (New England Nuclear Research, Catalog No. NEK-037), according to the manufacturer's directions.
The mean concentrations of PGE2 were calculated for each group. The anti-inflammatory activity of test materials is expressed as the percent inhibition of PGE2 formation in the test group relative to the control group.

[2] = Alzheimer's patients; Rogers, J., et. al., Neurology, (1993), 43, 1609; cited from earlier work
[3] = Carrageenan-induced paw edema in the rat (anti-inflammatory activity); type: in vivo; conditions: 3 h, 10 mg/Kg, oral, female rats, read-out: % inhibition of increase in hind paw weight
Method: The anti-inflammatory activity of compounds of this invention was determined by measuring the inhibition of carrageenan-induced paw edema in the rat, using a modification of the method described in Winter C. k et al (1962) "Carrageenan-Induced Edema in Hind Paw of the Rat as an Assay for Anti-inflammatory Drugs". Proc. Soc. Exp. Biol. Med. 111: 544-547. This assay has been used as a primary in vivo screen for anti-inflammatory activity of most NSAIDs, and is considered predictive of human efficacy. Briefly, test materials were administered orally to female rats in a volume of 1 ml prepared as solutions or suspensions in an aqueous vehicle containing 0.9% NaCl, 0.5% sodium carboxymethyl-cellulose, 0.4% polysorbate 80, 0.9% benzyl alcohol and 97.3% distilled water. Control rats received vehicle alone. After 1 hr 0.05 ml of a 0.5% solution of Carrageenan (Type IV Lambda, Sigma Chemical Co.) in 0.9% saline was injected into the subplantar region of the right hind paw. Three hours later the rats were euthanized in a carbon dioxide atmosphere; hind paws were removed by severing at the tatso-crural joint; and the left and right paws were weighed. The increase in weight of the right paw over the left paw was obtained for each animal and the mean increases were calculated for each group. The anti-inflammatory activity of the test materials is expressed as the percent inhibition of the increase in hind paw weight of the test group relative to the vehicle-dosed control group.
The anti-inflammatory activities (expressed as % inhibition) of some of the compounds of the invention were: […]

[4] = Acetic Acid-induced Rat Writhing Assay (analgesic activity); type: in vivo; conditions: 10 mg/Kg, oral, male Sprague Dawley rats
Source text: The analgesic activity of compounds of this invention may be determined by the Acetic Acid-induced Rat Writhing Assay, using a modification of the method described in Berkenkopf, J. W. and Weichman, B. M. "Production of Prostacyclin in Mice following Intraperitoneal Injection of Acetic Acid, Phenylbenzoquinone and Zymosan: Its Role in the Writhing Response". Prostaglandins: 36: 693-70 (1988). This assay is one of several acute assays which have been used to assess the analgesic activity of NSAIDs, and is considered predictive of human efficacy. The test materials were administered orally to male Sprague Dawley rats in a volume of 1 ml/100 g body weight as solutions or suspensions in an aqueous vehicle containing 0.9% NaCl, 0.5% sodium carboxymethyl-cellulose, 0.4% polysorbate 80, 0.9% benzyl alcohol and 97.3% water. Control rats received vehicle alone. One hour after compound administration, 0.3 ml/100 g body weight of 0.75% solution of acetic acid was injected intraperitoneally. The acetic acid injection induces a series of characteristic writhing responses, which were counted over the period between 15 and 30 minutes after the injection. The analgesic activity of test materials is expressed as the percentage inhibition of writhing in the test group relative to the control group.

COX I = COX I (Homo sapiens, UniProt P23219); test: Inhibition of COX I in vitro, partially purified enzyme, radiometric assay; type: biochemical; parameters: made in house; conditions: 20 micromolar arachidonic acid
Method: (§1) The COX I and COX II inhibitory activity of compounds of this invention in vitro was determined using partially purified COX I and COX II enzymes, prepared as described in J. Barnett et al, Biochim. Biophys.
(§2) COX I and COX II samples were diluted with Tris-HCl buffer (50 mM Tris-HCl, pH 7.9) containing 2 mM EDTA and 10% glycerol and reconstituted by incubating first with 2 mM phenol for 5 minutes and then with 1 micromolar hematin for an additional 5 minutes. 125 μl of the reconstituted COX I or COX II enzyme were preincubated for 10 minutes at room temperature in a shaking water bath with the compounds of the invention dissolved in 2-15 μl of DMSO or the carrier vehicles (control samples). The enzyme reaction was initiated by adding 25 μl of 1-[14C]arachidonic acid (80,000-100,000 cpm/tube; 20 micromolar final concentration) and the reaction was allowed to continue for an additional 45 seconds. The reaction was terminated by adding 100 μl of 2N HCl and 750 μl water. An aliquot (950 μl) of the reaction mixture was loaded onto a 1 ml C18 Sep-Pak column (J. T. Baker, Phillipsburg, N.J.) which had been previously washed with 2-3 ml methanol and equilibrated with 5-6 ml distilled water. Oxygenated products were quantitatively eluted with 3 ml of acetonitrile/water/acetic acid (50:50:0.1, v/v) and the radioactivity in the eluate determined in a scintillation counter.

COX II = biological target: T1, COX II (Homo sapiens, UniProt P35354); test: Inhibition of COX II in vitro, partially purified enzyme, radiometric assay; type: biochemical; parameters: made in house; conditions: 20 micromolar arachidonic acid
T1 sequence (P35354 18-604): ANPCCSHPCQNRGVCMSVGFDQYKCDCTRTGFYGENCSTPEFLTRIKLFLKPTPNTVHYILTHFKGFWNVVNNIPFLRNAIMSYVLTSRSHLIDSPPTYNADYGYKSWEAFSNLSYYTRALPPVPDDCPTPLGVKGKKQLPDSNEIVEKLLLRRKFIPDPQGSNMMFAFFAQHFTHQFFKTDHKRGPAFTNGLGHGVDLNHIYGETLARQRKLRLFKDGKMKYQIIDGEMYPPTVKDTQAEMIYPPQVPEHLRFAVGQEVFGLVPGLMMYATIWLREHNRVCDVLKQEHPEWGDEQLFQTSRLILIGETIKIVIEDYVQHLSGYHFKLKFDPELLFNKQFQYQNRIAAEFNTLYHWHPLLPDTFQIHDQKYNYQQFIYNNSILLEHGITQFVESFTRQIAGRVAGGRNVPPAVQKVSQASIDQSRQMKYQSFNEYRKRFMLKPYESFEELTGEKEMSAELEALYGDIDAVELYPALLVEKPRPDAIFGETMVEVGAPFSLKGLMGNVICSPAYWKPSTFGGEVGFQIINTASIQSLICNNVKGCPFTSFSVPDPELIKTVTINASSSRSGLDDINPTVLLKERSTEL
Method: as §1, §2

Chain of COX I (P23219 24-599): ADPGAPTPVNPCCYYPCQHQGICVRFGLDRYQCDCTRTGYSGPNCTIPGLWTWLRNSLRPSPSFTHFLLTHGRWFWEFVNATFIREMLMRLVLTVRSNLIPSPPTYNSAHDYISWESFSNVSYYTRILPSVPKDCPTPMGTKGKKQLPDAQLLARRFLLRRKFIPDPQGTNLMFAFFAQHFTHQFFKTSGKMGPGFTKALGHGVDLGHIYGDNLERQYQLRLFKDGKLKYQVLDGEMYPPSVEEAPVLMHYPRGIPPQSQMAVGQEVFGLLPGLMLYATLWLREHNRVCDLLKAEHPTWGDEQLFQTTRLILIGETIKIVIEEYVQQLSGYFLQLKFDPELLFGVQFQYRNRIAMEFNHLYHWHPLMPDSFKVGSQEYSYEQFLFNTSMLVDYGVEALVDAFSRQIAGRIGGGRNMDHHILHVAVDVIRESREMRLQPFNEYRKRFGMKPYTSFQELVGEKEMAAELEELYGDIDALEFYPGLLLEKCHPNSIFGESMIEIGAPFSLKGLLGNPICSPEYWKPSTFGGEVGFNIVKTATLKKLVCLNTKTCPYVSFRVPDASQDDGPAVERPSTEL

IC50 (COX I)	IC50 (COX II)	SMILES	% inhibition of air pouch PGE2 formation ([1]; 2-5 mg/Kg)	effect on cognitive decline [2]	inhibition in vivo at 10 mg/kg [3]	% inhibition of air pouch PGE2 formation ([1]; 10 mg/Kg)	% inhibition of writhing responses [4]
–	–	COc1ccc2c(c1)c(CC(=O)O)c(C)n2C(=O)c1ccc(Cl)cc1 [Indomethacin, reference compound]	> 70%	inhibit the cognitive decline of Alzheimer's patients	–	–	–
57 µM	0.1 µM	COc1ccc(C(=O)c2cccc(Cc3ccc(=O)[nH]n3)c2Cl)cc1 [Cpd 2, 6-[3-(4-methoxybenzoyl)-2-chlorobenzyl]-2H-pyridazin-3-one]	–	–	20%	32%	9%
